Read-outs that look alike come from different tables or passages of the source. Ends that are not written are not given here. Peptide text beside a SMILES is read from it.
Experiments:
F. graminearum hyphae [1] = assay type: cell-based, Fusarium graminearum
Aspergillus flavus = assay type: cell-based
F. graminearum hyphae [2] = assay type: cell-based, Fusarium graminearum; remark: listed apart in the source
[3] = F. graminearum PH-1, SFM without calcium
[4] = PH-1, all concentrations tested
[5] = PH-1 conidia, microscopic observation after overnight (16 hours) incubation

NCC(=O)N1CCC[C@H]1C(=O)N[C@@H](CS)C(=O)N[C@@H](Cc1ccccc1)C(=O)N[C@@H](CO)C(=O)NCC(=O)N[C@@H](CS)C(=O)O [ALP1] (H-GPCFSGC-OH; N-terminus and C-terminus assumed)
antifungal activity at 48 µM (in words) (F. graminearum PH-1; PH-1): no antifungal activity
IC100: amount of protein required to inhibit F. graminearum conidial germination completely (F. graminearum PH-1; [3]): >48 µM
antifungal activity (in words) (F. graminearum PH-1; [4]): totally inactive

C[C@H](NC(=O)[C@H](CS)NC(=O)[C@@H]1CCCN1C(=O)CN)C(=O)N[C@@H](CO)C(=O)N[C@@H](CC(=O)O)C(=O)N[C@@H](Cc1c[nH]cn1)C(=O)N[C@@H](CC(N)=O)C(=O)N[C@@H](CS)C(=O)O [ALP4] (H-GPCASDHNC-OH; N-terminus and C-terminus assumed)
antifungal activity at 48 µM (in words) (F. graminearum PH-1; PH-1): no antifungal activity
IC100: amount of protein required to inhibit F. graminearum conidial germination completely (F. graminearum PH-1; [3]): >48 µM
antifungal activity (in words) (F. graminearum PH-1; [4]): totally inactive

C[C@@H](O)[C@H](NC(=O)[C@H](CS)NC(=O)[C@H](Cc1c[nH]c2ccccc12)NC(=O)[C@H](CS)NC(=O)[C@H](CCCNC(=N)N)NC(=O)[C@H](Cc1ccccc1)NC(=O)[C@H](CC(=O)O)NC(=O)[C@H](CC(=O)O)NC(=O)[C@H](CCCNC(=N)N)NC(=O)[C@H](CS)NC(=O)[C@H](CCCNC(=N)N)NC(=O)CN)C(=O)N[C@@H](CCCCN)C(=O)N[C@@H](CCCNC(=N)N)C(=O)N[C@@H](CS)C(=O)O [GMA1-C] (H-GRCRDDFRCWCTKRC-OH; N-terminus and C-terminus assumed)
SG uptake at 24 µM relative to that induced by GMA4-C (F. graminearum hyphae [1]; 24 µM): twice
IC100: amount of protein required to inhibit F. graminearum conidial germination completely (F. graminearum PH-1; [3]): 24 µM
hyperbranching of fungal hyphae (F. graminearum PH-1; PH-1, microscopy after 16 hours): did not cause hyperbranching
concentration giving complete inhibition of conidial germination (IC100) (F. graminearum PH-1; PH-1 conidia): 24 µM
lowest concentration at which antifungal activity / growth inhibition was evident (F. graminearum PH-1; [5]): 6 µM

N=C(N)NCCC[C@H](NC(=O)[C@H](Cc1ccccc1)NC(=O)[C@H](CC(=O)O)NC(=O)[C@H](CC(=O)O)NC(=O)[C@@H](N)CCCNC(=N)N)C(=O)O [GMA1-L] (H-RDDFR-OH; N-terminus and C-terminus assumed)
SYTOX Green uptake (in words) (F. graminearum hyphae [1]): failed to induce any uptake
IC100: amount of protein required to inhibit F. graminearum conidial germination completely (F. graminearum PH-1): >96 µM
antifungal activity (in words) (F. graminearum PH-1): no antifungal activity
antifungal activity at 96 µM (in words) (F. graminearum PH-1): inactive
IC50 (F. graminearum PH-1; PH-1, 36 h): > 96 µM

N=C(N)NCCC[C@H](NC(=O)CN)C(=O)N[C@@H](CS)C(=O)N[C@@H](CCCNC(=N)N)C(=O)N[C@@H](CC(=O)O)C(=O)N[C@@H](CC(=O)O)C(=O)N[C@@H](Cc1ccccc1)C(=O)N[C@@H](CCCNC(=N)N)C(=O)N[C@@H](CS)C(=O)O [GMA1] (H-GRCRDDFRC-OH; N-terminus and C-terminus assumed)
antifungal activity at 48 µM (in words) (F. graminearum PH-1; PH-1): no antifungal activity
antifungal activity at 96 µM (in words) (F. graminearum PH-1; PH-1): failed to show any antifungal activity
IC100: amount of protein required to inhibit F. graminearum conidial germination completely (F. graminearum PH-1; [3]): >192 µM
antifungal activity (in words) (F. graminearum PH-1; [4]): inactive

C[C@@H](O)[C@H](NC(=O)[C@H](CS)NC(=O)[C@H](Cc1ccccc1)NC(=O)[C@H](CS)NC(=O)[C@H](CCCNC(=N)N)NC(=O)[C@H](CCCNC(=N)N)NC(=O)[C@H](CCCNC(=N)N)NC(=O)[C@H](Cc1ccccc1)NC(=O)CNC(=O)[C@H](CCCNC(=N)N)NC(=O)[C@H](CS)NC(=O)[C@H](CCCNC(=N)N)NC(=O)CN)C(=O)N[C@H](C(=O)N[C@@H](Cc1c[nH]cn1)C(=O)N[C@@H](CS)C(=O)O)[C@@H](C)O [GMA4-C] (H-GRCRGFRRRCFCTTHC-OH; N-terminus and C-terminus assumed)
IC100: amount of protein required to inhibit F. graminearum conidial germination completely (F. graminearum PH-1): 6 µM
concentration giving complete inhibition of conidial germination (IC100) (F. graminearum PH-1): 6 µM
lowest concentration at which antifungal activity / growth inhibition was evident (F. graminearum PH-1): 1.5 µM
fungal growth inhibition at 3 µM (F. graminearum PH-1; PH-1, 16 h, 3 µM): 70±9%
IC50 (F. graminearum PH-1; PH-1, 36 h): 3 µM

C[C@H](NC(=O)CNC(=O)[C@@H](N)CCCNC(=N)N)C(=O)N[C@@H](CCCNC(=N)N)C(=O)N[C@@H](CCCNC(=N)N)C(=O)N[C@@H](CCCNC(=N)N)C(=O)O [GMA4-L1] (H-RGARRR-OH; N-terminus and C-terminus assumed)
SYTOX Green uptake at 24 µM (F. graminearum hyphae [1]; 24 µM): > 100 fluorescence units
IC100: amount of protein required to inhibit F. graminearum conidial germination completely (F. graminearum PH-1): >96 µM
growth inhibition at 24 µM, 16 hours (in words) (F. graminearum PH-1): mild growth inhibition
growth inhibition at 96 µM (F. graminearum PH-1; PH-1, 16 h): 30–40%
IC50 (F. graminearum PH-1; PH-1, 36 h): > 96 µM

C[C@H](NC(=O)[C@H](Cc1ccccc1)NC(=O)CNC(=O)[C@@H](N)CCCNC(=N)N)C(=O)N[C@@H](CCCNC(=N)N)C(=O)N[C@@H](CCCNC(=N)N)C(=O)O [GMA4-L2] (H-RGFARR-OH; N-terminus and C-terminus assumed)
SYTOX Green uptake (in words) (F. graminearum hyphae [1]): failed to induce any uptake
IC100: amount of protein required to inhibit F. graminearum conidial germination completely (F. graminearum PH-1): >96 µM
growth inhibition at 24 µM, 16 hours (in words) (F. graminearum PH-1): mild growth inhibition
growth inhibition at 96 µM (F. graminearum PH-1; PH-1, 16 h): 30–40%
IC50 (F. graminearum PH-1; PH-1, 36 h): > 96 µM

N=C(N)NCCC[C@H](NC(=O)[C@H](CCCNC(=N)N)NC(=O)[C@H](CCCNC(=N)N)NC(=O)[C@H](Cc1ccccc1)NC(=O)CNC(=O)[C@@H](N)CCCNC(=N)N)C(=O)O [GMA4-L] (H-RGFRRR-OH)
fungal growth inhibition at 12 µM (F. graminearum PH-1; PH-1, 16 h, 12 µM): 100%
IC50 (F. graminearum PH-1; PH-1, 36 h): 4 µM
fungal growth inhibition at 6 µM (F. graminearum PH-1; PH-1, 36 h, 6 µM): 91±7%

N=C(N)NCCC[C@H](NC(=O)CN)C(=O)N[C@@H](CS)C(=O)N[C@@H](CCCNC(=N)N)C(=O)NCC(=O)N[C@@H](Cc1ccccc1)C(=O)N[C@@H](CCCNC(=N)N)C(=O)N[C@@H](CCCNC(=N)N)C(=O)N[C@@H](CCCNC(=N)N)C(=O)N[C@@H](CS)C(=O)O [GMA4] (H-GRCRGFRRRC-OH; N-terminus and C-terminus assumed)
concentration giving complete inhibition of conidial germination (IC100) (F. graminearum PH-1; PH-1 conidia): 12 µM
lowest concentration at which antifungal activity / growth inhibition was evident (F. graminearum PH-1; [5]): 6 µM

RTCESQSHKFKGPCASDHNCASVCQTERFSGGRCRGFRRRCFCTTHC (also: bicyclic or more (positions not given here)) [MtDef4]
SYTOX Green uptake (in words) (F. graminearum hyphae [1]): increased in a concentration dependant manner
time to start of SG uptake after addition of defensin (F. graminearum hyphae [1]): ≤ 5 min
maximum SYTOX Green fluorescence at 6 µM, 5 hours (F. graminearum hyphae [1]; 6 µM, 5 hours): 702±10 units
growth inhibition of A. flavus at 48 µM (Aspergillus flavus): approximately 75%
hyphal morphology compared with untreated control hyphae (F. graminearum hyphae [2]): no difference
IC100: amount of protein required to inhibit F. graminearum conidial germination completely (F. graminearum PH-1): 1.5 to 2.5 µM
concentration giving complete inhibition of conidial germination (IC100) (F. graminearum PH-1): 1.5 µM
fungal growth inhibition at 1.5 µM (F. graminearum PH-1; 1.5 µM): 100%
IC50 (F. graminearum PH-1; read-out: IC50: amount of protein required for inhibiting 50% growth of F. graminearum): 0.75 to 1 µM
